In general, IC50 refers to the concentration at which inhibition is half-maximal. A low value points to greater potency in that assay.

This passage reports IC50 results from patent US20100041760A1, “MONOARYL AMINOTETRALINES” (priority 2008, published 2010).

In experiment [1] the target is T1, thromboxane A2 receptor (TP) (Homo sapiens, UniProt P21731).
T1 construct: using human platelets as the source of the receptor; from tissue; host or cells: human platelets (whole platelets, 5x10^7 per well)
T1 sequence (P21731 1-343): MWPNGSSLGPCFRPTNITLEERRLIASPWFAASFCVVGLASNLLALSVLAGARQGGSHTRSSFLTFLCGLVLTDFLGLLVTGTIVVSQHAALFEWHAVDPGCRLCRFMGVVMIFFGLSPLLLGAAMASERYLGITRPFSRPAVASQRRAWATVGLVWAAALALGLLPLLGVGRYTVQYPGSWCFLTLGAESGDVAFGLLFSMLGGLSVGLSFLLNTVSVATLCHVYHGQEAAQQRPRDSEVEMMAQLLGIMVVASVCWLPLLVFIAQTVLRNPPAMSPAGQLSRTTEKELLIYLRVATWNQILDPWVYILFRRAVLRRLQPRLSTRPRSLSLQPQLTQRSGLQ
Kind of experiment: Human Thromboxane A2 Receptor Binding Assay. The note with it: human platelets; 10 nM [3H]SQ29548; 1 hour, room temperature. From the text:
The thromboxane A2 receptor (TP) plays a key role in hemostasis as its abnormality leads to bleeding disorders. To avoid the potential liability of bleeding disorders, the binding activity of certain compounds of the present invention against TP was monitored by a receptor binding assay using human platelets as the source of the receptor and [^3H]SQ29548 (generically named (5Z)-[5,6-^3H]-7-[(1S,2R,3R,4R)-3-[[2-[(phenylamino)carbonyl]hydrazinyl]methyl]-7-oxabicyclo[2.2.1]hept-2-yl]-5-heptenoic acid, from PerkinElmer Inc.) as the competing radioactive ligand.
The TP binding reactions (0.2 mL) were performed in 96-well plates at room temperature in PBS containing 5×10^7 platelets, 10 mM MgCl2, 0.06% BSA, 10 nM [^3H]SQ29548, and the test compound at various concentrations. After 1 hour of binding reactions, the platelets were harvested on GF/B filter plates (as previously described from PerkinElmer Inc.) and washed 5 times with PBS using a Filtermate™ Harvester (as previously described from PerkinElmer Inc.). The radioactivities bound to the platelets were determined using a microplate scintillation counter (TopCount® NXT, from PerkinElmer Inc.) after adding 50 μL of Microscint™ 20 scintillation fluid (from PerkinElmer Inc.) to each well of the filter plates. The radioactivity from non-specific binding was determined by replacing the compound with 10 μM of ramatroban (BAY-u3405, from Cayman Chemical Company) in the reaction mixtures. The radioactivity bound to the platelets in the absence of compound (total binding) was determined by replacing the compound with 0.25% of DMSO in the reaction mixture. Specific binding data were obtained by subtracting the radioactivity of non-specific binding from each binding data.
(§1) The IC50 value is defined as the concentration of the tested compound that is required for 50% inhibition of total specific binding. In order to calculate the IC50 value, the percent inhibition data were determined for 7 concentrations for each compound. The percent inhibition for a compound at each concentration was calculated according to the following formula, [1−(specific binding in the presence of compound)/(total specific binding)]×100. The IC50 value was then obtained by fitting the percent inhibition data to a sigmoidal dose-response (4 parameter logistic) model in the XLfit® software Excel add-in program [from ID Business Solutions Ltd., model 205, where F(x)=(A+(B−A)/(1+((C/x)̂D)))].

A further experiment deals with T2, human CRTH2 (Homo sapiens, UniProt Q9Y5Y4).
T2 sequence (Q9Y5Y4 1-395): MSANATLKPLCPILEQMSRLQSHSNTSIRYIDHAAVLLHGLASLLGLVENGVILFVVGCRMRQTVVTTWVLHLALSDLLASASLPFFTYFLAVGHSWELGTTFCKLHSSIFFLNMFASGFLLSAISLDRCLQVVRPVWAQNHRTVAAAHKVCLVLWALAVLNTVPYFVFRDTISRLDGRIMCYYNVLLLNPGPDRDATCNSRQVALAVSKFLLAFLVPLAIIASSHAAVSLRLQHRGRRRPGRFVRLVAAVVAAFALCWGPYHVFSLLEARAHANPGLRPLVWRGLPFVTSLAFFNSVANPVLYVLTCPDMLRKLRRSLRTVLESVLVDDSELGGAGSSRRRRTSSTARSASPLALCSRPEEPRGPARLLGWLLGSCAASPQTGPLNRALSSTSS
The experiment in a line: Human CRTH2 Receptor Binding Assay (whole cell, [3H]ramatroban competition). The arrangement: expressed in transfected cells; host or cells: CHO-K1 (co-transfected with G-alpha16). The note with it: CHO-K1 cells expressing human CRTH2 and G-alpha16; 20 nM [3H]ramatroban; 1 hour, room temperature.
Excerpt: A whole cell receptor binding assay using [^3H]ramatroban as the competing radioactive ligand was employed to evaluate the compound binding activity to human CRTH2. The radioactive ligand [^3H]ramatroban was synthesized according to Sugimoto et. al. (Eur. J. Pharmacol. 524, 30-37, 2005) to a specific activity of 42 Ci/mmol.
A cell line stably expressing human CRTH2 was established by transfecting CHO-K1 cells with two mammalian expression vectors that harbored human CRTH2 and G-alpha16 cDNAs, respectively, using FuGene® 6 transfection reagent (from Roche). Stable clones expressing CRTH2 were selected by staining each clone with BM16 (BD Pharmingen™ from BD Biosciences, a division of Becton, Dickinson and Company), which is a rat monoclonal antibody to human CRTH2. The cells were maintained as monolayer cultures in Ham's F-12 medium containing 10% fetal bovine serum, 100 units/mL penicillin, 100 μg/mL streptomycin, 2 mM glutamine, 0.5 mg/mL G418 (geneticin) for CRTH2, and 0.2 mg/mL hygromycin-B (for G-alpha 16). For whole cell receptor binding assay, the monolayer cells were rinsed once with PBS (phosphate buffered saline), dissociated using ethylenediaminetetraacetate (Versene™ EDTA from Lonza Inc.), and suspended in PBS containing 10 mM MgCl2 and 0.06% BSA (bovine serum albumin) at 1.5×10^6 cells/mL.
The binding reactions (0.2 mL) were performed in 96-well plates at room temperature in PBS containing 1.5×10^5 cells, 10 mM MgCl2, 0.06% BSA, 20 nM [^3H]ramatroban, and test compound at various concentrations. After 1 hour of binding reactions, the cells were harvested on GF™/B filter microplates (microtiter plates with embedded glass fiber from PerkinElmer, Inc.) and washed 5 times with PBS using a Filtermate™ Harvester (a cell harvester that harvests and washes cells from microplates from PerkinElmer, Inc.). The radioactivities bound to the cells were determined using a microplate scintillation counter (TopCount® NXT, from PerkinElmer, Inc.) after adding 50 μL of Microscint™ 20 scintillation fluid (from PerkinElmer, Inc.) to each well of the filter plates. The radioactivity from non-specific binding was determined by replacing compound with 10 μM of 15(R)-15-methyl PGD2 (from Cayman Chemical Company) in the reaction mixtures. The radioactivity bound to the cells in the absence of compound (total binding) was determined by replacing compound with 0.25% of DMSO (dimethyl sulfoxide) in the reaction mixture. Specific binding data were obtained by subtracting the radioactivity of non-specific binding from each binding data.
as §1

As for `CC(C)c1cc(C(F)(F)F)cc(S(=O)(=O)N(C)[C@@H]2CCCc3c(OCC(=O)O)cccc32)c1` [Example 8-1, {(R)-5-[(3-isopropyl-5-trifluoromethyl-benzenesulfonyl)-methyl-amino]-5,6,7,8-tetrahydro-naphthalen-1-yloxy}-acetic acid], the results for the IC50 (in experiment [1]; on human CRTH2) were greater than 10000 nM and 91.2 nM, respectively.
For `CC(C)Oc1cc(C(F)(F)F)cc(S(=O)(=O)N(C)[C@@H]2CCCc3c(OCC(=O)O)cccc32)c1` [Example 9-1, {(R)-5-[(3-isopropoxy-5-trifluoromethyl-benzenesulfonyl)-methyl-amino]-5,6,7,8-tetrahydro-naphthalen-1-yloxy}-acetic acid] the same measures were greater than 10000 nM and 147 nM.
`CC(F)(F)c1cc(C(F)(F)F)cc(S(=O)(=O)N[C@@H]2CCCc3c(OCC(=O)O)cccc32)c1` [Example 10-2, {(R)-5-[3-(1,1-difluoro-ethyl)-5-trifluoromethyl-benzenesulfonylamino]-5,6,7,8-tetrahydro-naphthalen-1-yloxy}-acetic acid]: the IC50 in experiment [1] was greater than 10000 nM; on human CRTH2 it was 6 nM.
The like results for `O=C(O)COc1cccc2c1CCC[C@H]2NS(=O)(=O)c1cc(C(F)(F)F)cc(C(F)(F)F)c1` [Example 10-3, [(R)-5-(3,5-bis-trifluoromethyl-benzenesulfonylamino)-5,6,7,8-tetrahydro-naphthalen-1-yloxy]-acetic acid] were, in that order, greater than 10000 nM and 6.3 nM.
`Cc1cc(C)cc(S(=O)(=O)N[C@@H]2CCCc3c(OCC(=O)O)cccc32)c1` [Example 10-4, [(R)-5-(3,5-dimethyl-benzenesulfonylamino)-5,6,7,8-tetrahydro-naphthalen-1-yloxy]-acetic acid]: the values for the IC50 (in experiment [1]; on human CRTH2) were 8180 nM and 310 nM, respectively.
Take `CC(C)c1cc(C(F)(F)F)cc(S(=O)(=O)N[C@@H]2CCCc3c(OCC(=O)O)cccc32)c1` [Example 10-6, [(R)-5-(3-isopropyl-5-trifluoromethyl-benzenesulfonylamino)-5,6,7,8-tetrahydro-naphthalen-1-yloxy]-acetic acid]: the IC50 is greater than 10000 nM in experiment [1] and 13.5 nM on human CRTH2.
Take `CC1(c2cc(C(F)(F)F)cc(S(=O)(=O)N[C@@H]3CCCc4c(OCC(=O)O)cccc43)c2)CC1` [Example 10-7, {(R)-5-[3-(1-methyl-cyclopropyl)-5-trifluoromethyl-benzenesulfonylamino]-5,6,7,8-tetrahydro-naphthalen-1-yloxy}-acetic acid]: the IC50 is greater than 10000 nM in experiment [1] and 18.4 nM at human CRTH2.
The like results for `CC(C)(C)c1cc(C(C)(C)C)cc(S(=O)(=O)N[C@@H]2CCCc3c(OCC(=O)O)cccc32)c1` [Example 10-8, [(R)-5-(3,5-di-tert-butyl-benzenesulfonylamino)-5,6,7,8-tetrahydro-naphthalen-1-yloxy]-acetic acid] were, in that order, greater than 10000 nM and 31 nM.
The like results for `CS(=O)(=O)c1cc(S(C)(=O)=O)cc(S(=O)(=O)N[C@@H]2CCCc3c(OCC(=O)O)cccc32)c1` [Example 10-9, [(R)-5-(3,5-bis-methanesulfonyl-benzenesulfonylamino)-5,6,7,8-tetrahydro-naphthalen-1-yloxy]-acetic acid] were, in that order, greater than 10000 nM and 9 nM.
`COc1cc(C(F)(F)F)cc(S(=O)(=O)N[C@@H]2CCCc3c(OCC(=O)O)cccc32)c1` [Example 10-10, [(R)-5-(3-methoxy-5-trifluoromethyl-benzenesulfonylamino)-5,6,7,8-tetrahydro-naphthalen-1-yloxy]-acetic acid]: the figures for the IC50 (in experiment [1]; on human CRTH2) were greater than 10000 nM and 18 nM, respectively.
Turning to `O=C(O)COc1cccc2c1CCC[C@H]2NS(=O)(=O)c1cc(Br)cc(C(F)(F)F)c1` [Example 10-11, [(R)-5-(3-bromo-5-trifluoromethyl-benzenesulfonylamino)-5,6,7,8-tetrahydro-naphthalen-1-yloxy]-acetic acid], the IC50 is greater than 10000 nM in experiment [1] and 9 nM on human CRTH2.
